{
  "source": "paper PMC6471427",
  "about": "“Halogen-Substituted Triazolethioacetamides as a Potent Skeleton for the Development of Metallo-β-Lactamase Inhibitors” (Molecules, 2019)",
  "key": {"[1]": {"target": "T1, VIM-2 (Escherichia coli, UniProt Q5U7L7)", "T1 construct": "made in house", "assay": "Inhibition of VIM-2 (UV-vis kinetics)", "assay_type": "biochemical", "details": "25 °C, Tris-HCl pH 7.0, 30 min pre-incubation; read-out: IC50 against VIM-2", "description": "(§1) To test whether these halogen-substituted triazolethioacetamides were inhibitors of the MβLs, three subclasses MβLs B1(VIM-2 and NDM-1), B2 (ImiS), and B3 (L1) were expressed and purified as previously described. […] On the whole, triazolethioacetamides containing chlorine (1–8) increase the inhibitory potency slightly on average compared to those containing fluorine (9–12), but the presence of trifluoromethoxy (13) is beneficial to increase the inhibitory activity. […] Furthermore, replacement of two hydrogen at the anilino group with chlorine (4 and 5) or fluorine (12) relatively reduces the inhibitory activity, especially compound 12 with two fluorine at 2,5-position of anilino group.\n(§2) The inhibition studies were carried out on an Agilent UV 8453 spectrophotometer at 25 °C using cefazolin as substrate of […], NDM-1, and L1 and imipenem as substrate of ImiS. Inhibitors 1–13 were dissolved in DMSO and then diluted with Tris-HCl, pH 7.0. The substrate concentrations were varied between 25 and 400 μM, and inhibitor concentrations were varied between 125 nM and 1 mΜ. The enzyme and inhibitor were pre-incubated for 30 min before starting the kinetic experiments. The IC50 values for all analyzed compounds were calculated based on the kinetic data. The mode of inhibition was determined by generating Lineweaver-Burk plots of the data, and the Ki was determined by replotting the data for slope and intercept versus […]."}, "[2]": {"target": "T2, NDM-1 (Klebsiella pneumoniae, UniProt C7C422)", "T2 construct": "made in house", "T2 sequence (C7C422 29-270, looked up, species assumed)": "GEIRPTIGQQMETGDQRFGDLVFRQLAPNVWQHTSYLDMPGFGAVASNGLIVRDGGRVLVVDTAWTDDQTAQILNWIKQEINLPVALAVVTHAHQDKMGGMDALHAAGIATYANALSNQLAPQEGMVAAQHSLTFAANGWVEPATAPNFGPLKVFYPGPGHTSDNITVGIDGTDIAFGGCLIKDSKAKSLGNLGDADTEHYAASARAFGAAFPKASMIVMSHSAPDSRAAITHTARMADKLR", "assay": "Inhibition of NDM-1 with cefazolin as substrate (UV-vis kinetics)", "assay_type": "biochemical", "details": "read-out: IC50 against NDM-1", "description": "as §1, §2"}, "[3]": {"target": "T3, ImiS (Aeromonas veronii, UniProt O31272)", "T3 construct": "made in house", "T3 sequence (O31272 28-255)": "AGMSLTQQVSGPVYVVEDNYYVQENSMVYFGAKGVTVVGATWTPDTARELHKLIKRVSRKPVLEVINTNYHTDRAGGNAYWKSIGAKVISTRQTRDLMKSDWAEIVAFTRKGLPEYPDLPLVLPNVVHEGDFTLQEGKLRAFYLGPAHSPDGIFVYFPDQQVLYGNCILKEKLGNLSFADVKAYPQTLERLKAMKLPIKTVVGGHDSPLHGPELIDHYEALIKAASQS", "assay": "Inhibition of ImiS-catalysed hydrolysis of imipenem (UV-vis kinetics; IC50, Ki, mode)", "assay_type": "biochemical", "details": "for Inhibition mode against ImiS: Lineweaver-Burk plots", "description": "as §1, §2"}, "[4]": {"target": "MβLs", "set-up": "method as in PMID 11564740", "details": "broad spectrum MβLs inhibitor; read-out: Ki against MβLs; cited from earlier work"}, "[5]": {"details": "25 °C, Tris-HCl pH 7.0, 30 min pre-incubation"}},
  "note": "Where two headings read alike, the source gives them in different places.",
  "data": [
    {"smiles": "O=C(CSc1nnc(-c2ccccc2O)[nH]1)Nc1ccc(Cl)c(Cl)c1", "note": "[Compound 4]", "values": [
      {"measurement": "IC50", "setting": "[1]", "result": "> 1000", "unit": "µM"},
      {"measurement": "IC50", "setting": "[2]; [5]", "result": "> 1e+06", "unit": "nM"},
      {"measurement": "IC50", "setting": "[3]", "result": "0.27 ± 0.02", "unit": "µM"}
    ]},
    {"smiles": "O=C(CSc1nnc(-c2ccccc2O)[nH]1)Nc1cccc(Cl)c1", "note": "[Compound 2]", "values": [
      {"measurement": "IC50", "setting": "[1]", "result": "> 1000", "unit": "µM"},
      {"measurement": "IC50", "setting": "[2]; [5]", "result": "170 ± 20", "unit": "nM"},
      {"measurement": "IC50", "setting": "[2]; value in nM", "result": 170, "unit": "nM"},
      {"measurement": "IC50", "setting": "[3]", "result": "0.045 ± 0.002", "unit": "µM"}
    ]},
    {"smiles": "O=C(CSc1nnc(-c2ccccc2O)[nH]1)Nc1ccc(OC(F)(F)F)cc1", "note": "[Compound 13]", "values": [
      {"measurement": "IC50", "setting": "[1]", "result": "2.8 ± 0.3", "unit": "µM"},
      {"measurement": "IC50", "setting": "[2]; [5]", "result": "> 1e+06", "unit": "nM"},
      {"measurement": "IC50", "setting": "[3]", "result": "0.23 ± 0.09", "unit": "µM"},
      {"measurement": "Ki", "setting": "[3]", "result": 0.27, "unit": "µM"},
      {"measurement": "Inhibition mode against ImiS", "setting": "[3]; imipenem as substrate", "result": "mixed inhibitors"}
    ]},
    {"smiles": "O=C(CSc1nnc(-c2ccccc2O)[nH]1)Nc1ccc(Cl)cc1Cl", "note": "[Compound 5]", "values": [
      {"measurement": "IC50", "setting": "[1]", "result": "> 1000", "unit": "µM"},
      {"measurement": "IC50", "setting": "[2]; [5]", "result": "> 1e+06", "unit": "nM"},
      {"measurement": "IC50", "setting": "[3]", "result": "0.16 ± 0.03", "unit": "µM"}
    ]},
    {"smiles": "O=C(CSc1nnc(-c2ccccc2O)[nH]1)Nc1ccc(Cl)cc1", "note": "[Compound 3]", "values": [
      {"measurement": "IC50", "setting": "[1]", "result": "> 1000", "unit": "µM"},
      {"measurement": "IC50", "setting": "[2]; [5]", "result": "370 ± 50", "unit": "nM"},
      {"measurement": "IC50", "setting": "[3]", "result": "0.051 ± 0.006", "unit": "µM"}
    ]},
    {"smiles": "O=C(CSc1nnc(-c2ccccc2O)[nH]1)Nc1cccc(F)c1", "note": "[Compound 10]", "values": [
      {"measurement": "IC50", "setting": "[1]", "result": "> 1000", "unit": "µM"},
      {"measurement": "IC50", "setting": "[2]; [5]", "result": "> 1e+06", "unit": "nM"},
      {"measurement": "IC50", "setting": "[3]", "result": "0.98 ± 0.04", "unit": "µM"}
    ]},
    {"smiles": "O=C(CSc1nnc(-c2ccccc2O)[nH]1)Nc1ccc(F)cc1", "note": "[Compound 11]", "values": [
      {"measurement": "IC50", "setting": "[1]", "result": "> 1000", "unit": "µM"},
      {"measurement": "IC50", "setting": "[2]; [5]", "result": "> 1e+06", "unit": "nM"},
      {"measurement": "IC50", "setting": "[3]", "result": "> 50", "unit": "µM"},
      {"measurement": "Inhibitory activity against ImiS (in words)", "setting": "[3]; imipenem as substrate", "result": "nearly had no inhibitory activity"}
    ]},
    {"smiles": "O=C(CSc1nnc(-c2ccccc2O)[nH]1)Nc1ccccc1F", "note": "[Compound 9]", "values": [
      {"measurement": "IC50", "setting": "[1]", "result": "> 1000", "unit": "µM"},
      {"measurement": "IC50", "setting": "[2]; [5]", "result": "> 1e+06", "unit": "nM"},
      {"measurement": "IC50", "setting": "[3]", "result": "0.072 ± 0.005", "unit": "µM"},
      {"measurement": "Ki", "setting": "[3]", "result": 0.074, "unit": "µM"},
      {"measurement": "Inhibition mode against ImiS", "setting": "[3]; imipenem as substrate", "result": "mixed inhibitors"}
    ]},
    {"smiles": "O=C(O)C(S)c1ccccc1", "note": "(centres unmarked) [rthiomandelic acid, thiomandelic acid]", "values": [
      {"measurement": "Ki", "setting": "[4]", "result": 0.09, "unit": "µM"}
    ]},
    {"smiles": "O=C(CSc1nnc(-c2ccccc2O)[nH]1)Nc1ccccc1Cl", "note": "[Compound 1]", "values": [
      {"measurement": "IC50", "setting": "[1]", "result": "> 1000", "unit": "µM"},
      {"measurement": "IC50", "setting": "[2]; [5]", "result": "960 ± 70", "unit": "nM"},
      {"measurement": "IC50", "setting": "[3]", "result": 0.032, "unit": "µM"}
    ]},
    {"smiles": "O=C(CSc1nnc(-c2ccccc2O)[nH]1)Nc1cc(Cl)ccc1[N+](=O)[O-]", "note": "[Compound 7]", "values": [
      {"measurement": "IC50", "setting": "[1]", "result": "> 1000", "unit": "µM"},
      {"measurement": "IC50", "setting": "[2]; [5]", "result": "> 1e+06", "unit": "nM"},
      {"measurement": "IC50", "setting": "[3]", "result": "0.2 ± 0.04", "unit": "µM"}
    ]},
    {"smiles": "O=C(CSc1nnc(-c2ccccc2O)[nH]1)Nc1ccc([N+](=O)[O-])cc1Cl", "note": "[Compound 8]", "values": [
      {"measurement": "IC50", "setting": "[1]", "result": "> 1000", "unit": "µM"},
      {"measurement": "IC50", "setting": "[2]; [5]", "result": "> 1e+06", "unit": "nM"},
      {"measurement": "IC50", "setting": "[3]", "result": "0.26 ± 0.03", "unit": "µM"}
    ]},
    {"smiles": "O=C(CSc1nnc(-c2ccccc2O)[nH]1)Nc1c(F)cccc1F", "note": "[Compound 12]", "values": [
      {"measurement": "IC50", "setting": "[1]", "result": "38.9 ± 5", "unit": "µM"},
      {"measurement": "IC50", "setting": "[2]; [5]", "result": "> 1e+06", "unit": "nM"},
      {"measurement": "IC50", "setting": "[3]", "result": "15.6 ± 3", "unit": "µM"}
    ]},
    {"smiles": "O=C(CSc1nnc(-c2ccccc2O)[nH]1)Nc1ccc(Cl)cc1[N+](=O)[O-]", "note": "[Compound 6]", "values": [
      {"measurement": "IC50", "setting": "[1]", "result": "> 1000", "unit": "µM"},
      {"measurement": "IC50", "setting": "[2]; [5]", "result": "> 1e+06", "unit": "nM"},
      {"measurement": "IC50", "setting": "[3]", "result": "0.78 ± 0.08", "unit": "µM"}
    ]},
    {"smiles": "O=C(O)C(S)c1ccccc1", "note": "(single isomer, unassigned) [S-isomer, thiomandelic acid]", "values": [
      {"measurement": "Ki", "setting": "[4]", "result": 1.28, "unit": "µM"}
    ]}
  ]
}
